What was measured:
MOLM-13-Luc2 cell line = test: Mouse model xenografted with MOLM-13-Luc2 cell line, survival; format: in vivo; conditions: NOG mouse, MOLM-13-Luc2 i.v.; Compound A 10 mg/kg/day oral once a day; azacitidine 3 mg/kg/day i.p. twice a week
Protocol: A comparison of Compound A and azacitidine or an efficacy test of combination thereof was conducted in a mouse model xenografted with a MOLM-13-Luc2 cell line which is a MOLM-13 cell line genetically modified to express luciferase.
The MOLM-13-Luc2 cell line was injected to a tail vein of NOG mouse at 5×10^6 cells/0.1 mL/mouse, and allowed to grow.
Bioluminescence images of MOLM-13-Luc2 cells were measured using a Lumina III IVIS imaging system (PerkinElmer) and quantified using a Living image software (PerkinElmer). When measured, D-luciferin (D-luciferin) was intraperitoneally injected to mice, and imaging was were performed under anesthesia using isoflurane. Images were measured for a first group separation during the experiment, and then measured on a specific day according to the purpose of the test.
A control group orally received a DMSO/PEG400/DW (ratio=0.5/2/7.5, v/v) mixed solution once a day, and a Compound A group was orally administered once a day at a dose of 10 mg/kg/day. An azacitidine group which is a hypomethylating agent (HMA) group was intraperitoneally administered at a dose of 3 mg/kg/day twice a week (on day 1 and day 4 of the week). A combination group was orally administered with Compound A at a dose of 10 mg/kg/day once a day, and azacitidine was intraperitoneally administered at a dose of 3 mg/kg/day twice a week (on day 1 and day 4 every week). Each group received individual drugs until all subjects in each group died.
The Y-axis represents a percentage (%) of surviving mice (survival rate) in each experimental group, and the X-axis represents the number of days of administration.

[1] = tested on: Ba/F3 cells expressed in an FLT3 ITD/F691L xenografted mouse model; test: In vivo study, Ba/F3 FLT3 ITD/F691L xenografted mouse model
[2] = tested on: MOLM-13 (DSMZ no. ACC 554) cell line; test: MOLM-13 cell growth inhibition (CellTiter-Glo), Compound A alone or combined with azacitidine; format: cell-based
Protocol: By examining growth inhibition of an MOLM-13 (DSMZ no. ACC 554) cell line which was treated with, in combination, an FLT3 inhibitor, 5-chloro-N-(3-cyclopropyl-5-(((3R,5S)-3,5-dimethylpiperazin-1-yl)methyl)phenyl)-4-(6-methyl-1H-indol-3-yl)pyrimidin-2-amine (hereinafter, Compound A) and a hypomethylating agent (HMA), 4-amino-1-β-D-ribofuranosyl-1,3,5-triazin-2(1H)-one (hereinafter, azacitidine), an effect of combined treatment of the two drugs was tested. The MOLM-13 cell line cultured in an RPMI 1640 culture medium (RPMI=Rosewell Parker Memory Institute) supplemented with 20% FBS was inoculated at a density of 2×10^4 cells per well in a 96-well plate, and Compound A was subjected to ½ serial dilution at predetermined concentrations (e.g., 10 nM to 0.078 nM) using the same culture medium. […] To measure cell viability, a CellTiter-Glo® (CTG) assay was performed, and for result analysis, 50% cell growth inhibition (GI50) was calculated using a GraphPad Prism software.

[3] = tested on: Ba/F3 cells expressed in an FLT3 ITD/D835Y xenografted mouse model; test: In vivo study, Ba/F3 FLT3 ITD/D835Y xenografted mouse model

Structure (SMILES)	median survival period (MOLM-13-Luc2 cell line)	overall survival period (MOLM-13-Luc2 cell line)	therapeutic effect / overcoming resistance caused by FLT3 mutations [1]	GI50 ([2]; Homo sapiens, 72 h, MOLM-13, incubation 3 days, CTG assay, combination with azacitidine at 800 nM, GI50 as Compound A concentration)	therapeutic effect / overcoming resistance caused by FLT3 mutations [3]	GI40 (concentration inhibiting MOLM-13 cell growth by about 40%) ([2]; MOLM-13 cells)
Cc1ccc2c(-c3nc(Nc4cc(CN5C[C@@H](C)N[C@@H](C)C5)cc(C5CC5)c4)ncc3Cl)c[nH]c2c1 [Compound A, 5-chloro-N-(3-cyclopropyl-5-(((3R,5S)-3,5-dimethylpiperazin-1-yl)methyl)phenyl)-4-(6-methyl-1H-indol-3-yl)pyrimidin-2-amine]	17 days	20 days	shows therapeutic effects	2.5 nM	shows therapeutic effects	–
Nc1ncn([C@@H]2O[C@H](CO)[C@@H](O)[C@H]2O)c(=O)n1 [Azacitidine, 4-amino-1-β-D-ribofuranosyl-1,3,5-triazin-2(1H)-one, reference compound]	16 days	18 days	–	–	–	800 nM

From US12433867B2, “Pharmaceutical composition comprising FLT3 inhibitor and hypomethylating agent for treating acute myeloid leukemia” (HANMI PHARM. CO., LTD, priority 2019, dated 2025)
